These results are taken from patent US20180221384A1, “COMPOSITIONS OF MIDAZOLAM FOR BUCCAL ADMINISTRATION IN THE TREATMENT OF SEIZURES TO OBTAIN RAPID ONSET OF ACTION” (SWIPP AB, priority 2015, published 2018).

A short description of series [1]: Pilot in vivo study: midazolam film preparation applied on the oro-mucosal membrane, plasma levels by LC-MS/MS. The conditions noted are these: for Corresponding plasma levels in children weighing 20 kg: at least; for Side-effects: healthy volunteers. How it is done:
Film preparations weighing approximately 0.07 g (1×2 cm) containing 2 mg midazolam hydrochloride were applied on the oro-mucosal membrane in healthy volunteers (body weight 90 kg). Venous blood samples were drawn 6, 12 and 18 minutes after application.
Film preparations weighing approximately 0.07 g (1×2 cm) containing 1 mg midazolam hydrochloride were applied on the oro-mucosal membrane in healthy volunteers (body weight 90 kg). Venous blood samples were drawn 6, 12 and 18 minutes after application.

The conditions of series [2]: cited from earlier work.
The conditions of series [3]: cited from earlier work. This is another data set of the same source.
Where [4] appears, read: human, plasma, other: applied on the oro-mucosal membrane, 1 mg.
Setting [5] is: midazolam solution 5 mg buccal, healthy volunteers (Schwagmeier et al. 1998).

Counter-ions that a name gives are not always drawn. Like-named read-outs stand apart in the source and are kept apart here. Where only a bound is given, the exact number is not on record here.

As for `Cc1ncc2n1-c1ccc(Cl)cc1C(c1ccccc1F)=NC2` [midazolam hydrochloride, Midazolam hydrochloride], the figures for the “Corresponding plasma levels in children weighing 20 kg” value in series [1] (extrapolated from adults given 1 mg film) and in series [1] (extrapolated from adults given 2 mg film) were 15 to 20 ng/mL and 15 to 50 ng/mL, respectively. Besides, the Side-effects result in series [1] (film containing 1 mg midazolam hydrochloride) and in series [1] (film containing 2 mg midazolam hydrochloride) was “No side-effects were observed” each time. The Average plasma levels in series [1] (film containing 2 mg midazolam hydrochloride, oro-mucosal, healthy volunteers 90 kg) worked out at 5 ng/mL. In series [1] (setting [4]), this compound showed a concentration at 6 min of 1 ng/mL. The compound also registered a concentration at 12 min in series [1] (setting [4]) of 4.6 ng/mL.

For the compound `Cc1ncc2n1-c1ccc(Cl)cc1C(c1ccccc1F)=NC2` [midazolam, Midazolam], the “Time to anticonvulsive effect” value in series [2] (adults administered 10-20 mg (Nakken et al. 2011)) was at most 5 min; in series [2] (children, buccal dose 0.2 mg/kg (Talukbar et al. 2009)), at most 5 min. The Blood levels is 5 to 10 ng/mL in series [1] (buccal film or wafer, dose 2 mg, adult volunteers (summary in description)) and 5 to 10 ng/mL in series [3] (setting [5]). Also, the Plasma level entry in series [1] (buccal film, dose 1 mg midazolam, adult 90 kg (summary in description)) is given as “about 5 ng/mL”. For the same compound, the “Plasma level (in words)” value in series [1] (buccal film, dose 1 mg, adults average body weight 90 kg) is recorded as “therapeutic levels”. In addition, the “Time to plasma concentration of 5 ng/mL” value in series [3] (approx. 10 mg midazolam, adult volunteers, most of the subjects (Scott et al. 1998)) is 5 to 10 min. Besides, the “Time to blood levels of 5-10 ng/mL” value in series [3] (setting [5]) is 3 to 6 min.
